Measured values: patent US6344439B1, “Agents for promoting bone formation” (priority 1995, dated 2002)
Where two headings read alike, the source gives them in different places.

Experiments:
[1] = tested on: osteoblasts of rat fetal calvaria; details: for No. of bone tuberculum: Tables 1-2 experiment (non-treated 146.5 ± 10.9); for No. of bone tuberculum / Calcified area: mean ± SD n=4
[2] = tested on: osteoblasts of rat fetal calvaria; format: cell-based; details: for Alkaline phosphatase activity: mean ± SD n=4; for Effect on alkaline phosphatase activity (in words): at 10^−8M
[3] = 10^−8M, Table 1 experiment (non-treated 0.044 ± 0.014)
[4] = 10^−8M, Table 3 experiment (non-treated 0.084 ± 0.008)
[5] = 10^−8M, Table 3 experiment (non-treated 4.46 ± 0.83)

Question: “Gly-Arg-Gly-Asp-Ser (GRGDS) [reference compound]” was tested. Which “No. of bone tuberculum” value ([1]; 10^−4M) did it give?
Answer: 168.3 ± 17.1 per well

Question: And the “No. of bone tuberculum” value ([1]; 10^−6M)?
Answer: 166.5 ± 10.6 per well

Question: What about the “Effect on calcification (in words)” value ([1]; at 10^−4M) of the same compound?
Answer: completely prevent

Question: What about the “Effect on calcification (in words)” value ([1]; at 10^−6M) of the same compound?
Answer: promote

Question: What about the “Effect on the number of bone tuberculum (in words)” value (shortened to “Effect on the number”) ([1]; at 10^−6M and 10^−4M ("these concentrations")) of the same compound?
Answer: tendency to be increased

Question: How did the Alkaline phosphatase activity [2, 3] turn out when C[C@@H]1C[C@H]2[C@@H]3CCC4=CC(=O)C=C[C@]4(C)[C@@]3(F)[C@@H](O)C[C@]2(C)[C@@]1(O)C(=O)CO [Dexamethasone, reference compound] was run?
Answer: 0.181 ± 0.018 μM/min/well

Question: And the Alkaline phosphatase activity [2, 4]?
Answer: 0.143 ± 0.015 μM/min/well

Question: And the Calcified area [1, 5]?
Answer: 13.82 ± 1.20 mm^2/well

Question: What about the Calcified area ([1]; 10^−8M, Table 4 experiment (non-treated 2.56 ± 0.11)) of the same compound?
Answer: 12.17 ± 1.05 mm^2/well

Question: What about the “No. of bone tuberculum” value ([1]; 10^−8M) of the same compound?
Answer: 307.3 ± 34.1 per well

Question: With Kistrin as the compound, how does the Alkaline phosphatase activity ([2]; 10^−5M, Table 3 experiment (non-treated 0.084 ± 0.008)) read?
Answer: 0.085 ± 0.009 μM/min/well

Question: What about the Alkaline phosphatase activity ([2]; 10^−6M, Table 1 experiment (non-treated 0.044 ± 0.014)) of the same compound?
Answer: 0.040 ± 0.003 μM/min/well

Question: What about the Alkaline phosphatase activity ([2]; 10^−6M, Table 3 experiment (non-treated 0.084 ± 0.008)) of the same compound?
Answer: 0.119 ± 0.008 μM/min/well

Question: What about the Alkaline phosphatase activity ([2]; 10^−7M, Table 1 experiment (non-treated 0.044 ± 0.014)) of the same compound?
Answer: 0.051 ± 0.007 μM/min/well

Question: And the Alkaline phosphatase activity ([2]; 10^−7M, Table 3 experiment (non-treated 0.084 ± 0.008))?
Answer: 0.133 ± 0.006 μM/min/well

Question: What about the Alkaline phosphatase activity [2, 3] of the same compound?
Answer: 0.067 ± 0.005 μM/min/well

Question: What about the Alkaline phosphatase activity [2, 4] of the same compound?
Answer: 0.126 ± 0.006 μM/min/well

Question: What about the Alkaline phosphatase activity ([2]; 10^−9M, Table 1 experiment (non-treated 0.044 ± 0.014)) of the same compound?
Answer: 0.051 ± 0.008 μM/min/well

Question: And the “Effect on alkaline phosphatase activity (in words)” value [2]?
Answer: promote

Question: And the “Effect on alkaline phosphatase activity (in words)” value ([2]; listed as kistrin)?
Answer: Promoted

Question: What about the Calcified area ([1]; 10^−5M, Table 3 experiment (non-treated 4.46 ± 0.83)) of the same compound?
Answer: 4.54 ± 0.88 mm^2/well

Question: And the Calcified area ([1]; 10^−6M, Table 3 experiment (non-treated 4.46 ± 0.83))?
Answer: 7.93 ± 1.37 mm^2/well

Question: What about the “No. of bone tuberculum” value ([1]; 10^−6M) of the same compound?
Answer: 147.8 ± 14.2 per well

Question: What about the Calcified area ([1]; 10^−7M, Table 3 experiment (non-treated 4.46 ± 0.83)) of the same compound?
Answer: 11.25 ± 1.04 mm^2/well

Question: What about the “No. of bone tuberculum” value ([1]; 10^−7M) of the same compound?
Answer: 189.5 ± 16.3 per well

Question: And the Calcified area [1, 5]?
Answer: 9.87 ± 1.04 mm^2/well

Question: What about the “No. of bone tuberculum” value ([1]; 10^−8M) of the same compound?
Answer: 161.8 ± 19.2 per well

Question: What about the “No. of bone tuberculum” value ([1]; 10^−9M) of the same compound?
Answer: 153.8 ± 12.3 per well

Question: And the “Effect on calcification (in words)” value ([1]; at 10^−6M)?
Answer: prevented completely

Question: What about the “Effect on the number” value ([1]; at 10^−6M) of the same compound?
Answer: not observed to affect

Question: What about the “Effect on calcification (in words)” value ([1]; at 10^−7 and 10^−8M) of the same compound?
Answer: promote

Question: What about the “Effect on the number” value ([1]; at 10^−7 and 10^−8M) of the same compound?
Answer: promote
